These results are taken from PubChem BioAssay (NCI).

“And” between values parts separate entries of the source, which are not always exact repeats. Equal entries are not always repeated.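 In this assay, cells in 96-well plates receive the compound at five concentrations for 48 hours. Endpoints are linearly interpolated between the surrounding concentrations. Here, GI50 denotes the concentration required for 50% inhibition of growth. TGI: concentration producing complete growth inhibition.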 A value given as a limit tells only on which side of the number the result lay.

Among the test systems are COLO 205 colon; EKVX NSCLC; SF-539 CNS; SK-MEL-5 melanoma; SN12C renal; SNB-75 CNS; SW-620 colon; TK-10 renal; U251 CNS; UO-31 renal.
Holding throughout (assay): NCI tumour cell line growth inhibition, 48 h

For the compound `Cc1cccc(C(C)C)c1N1C(=O)C(=O)C(c2nc3ccccc3o2)C(=O)C1=O`, the TGI in the experiment on COLO 205 colon, with EKVX NSCLC, in the experiment with SF-539 CNS, in the experiment with SK-MEL-5 melanoma, with SN12C renal and in the experiment on SNB-75 CNS was more than 100 µM throughout. For the same compound, the TGI in the experiment on SW-620 colon, in the experiment on TK-10 renal, in the experiment with U251 CNS and in the experiment on UO-31 renal was more than 100 µM in each case.

In the case of `Nc1c(O)cc(N=C2C(=O)C=CC=C2C(=O)O)c(O)c1C(=O)O`, the TGI with COLO 205 colon, in the experiment with EKVX NSCLC, in the experiment on SF-539 CNS, in the experiment on SK-MEL-5 melanoma, with SN12C renal and with SNB-75 CNS was more than 100 µM throughout. The TGI with SW-620 colon, in the experiment on TK-10 renal, in the experiment on U251 CNS and with UO-31 renal was more than 100 µM each time.

Regarding `Cc1noc2c1C(=O)CCC2`, the TGI with COLO 205 colon, in the experiment with EKVX NSCLC, with SF-539 CNS, in the experiment with SN12C renal, with SNB-75 CNS and in the experiment on SW-620 colon was more than 100 µM throughout. The TGI with TK-10 renal and in the experiment with UO-31 renal was more than 100 µM in each case.

With `CN(C)C(=Nc1nc(=[N+](C)C)ss1)N(C)C`, the TGI with EKVX NSCLC, in the experiment with SF-539 CNS, with SK-MEL-5 melanoma, in the experiment on SN12C renal, with SNB-75 CNS and in the experiment with SW-620 colon was more than 100 µM each time. For the same compound, the TGI in the experiment with TK-10 renal, in the experiment with U251 CNS and in the experiment with UO-31 renal was more than 100 µM each time.

For the compound `COC(=O)C1OC2(CCCC3CC32)O[C@H]1C(=O)OC` (some centres undefined), the TGI with COLO 205 colon, in the experiment on EKVX NSCLC, with SF-539 CNS, in the experiment with SN12C renal, in the experiment with SNB-75 CNS and in the experiment with SW-620 colon was more than 100 µM throughout. Also, the TGI in the experiment on TK-10 renal, in the experiment with U251 CNS and in the experiment on UO-31 renal was more than 100 µM throughout.

Consider `CN=C(NC(=S)N(C)C)N(C)C`, for which the TGI with EKVX NSCLC, in the experiment with SF-539 CNS, in the experiment with SK-MEL-5 melanoma, in the experiment with SN12C renal, in the experiment with SNB-75 CNS and with SW-620 colon was more than 100 µM throughout. For the same compound, the TGI with TK-10 renal, in the experiment on U251 CNS and in the experiment on UO-31 renal was more than 100 µM in each case.

Consider `COc1ccc2c(C3(c4cn(C)c5cc(OC)ccc45)C(=O)Nc4ccc(Cl)cc43)cn(C)c2c1`, for which the GI50 was 1.95 µM in the experiment on COLO 205 colon; 2.6 µM with EKVX NSCLC; 9.19 µM in the experiment with SF-539 CNS; 4.26 µM in the experiment on SK-MEL-5 melanoma; 1.91 µM in the experiment on SN12C renal; 2.1 µM with SNB-75 CNS. Further, the GI50 in the experiment on SW-620 colon was 4.67 µM; with U251 CNS, 3.81 µM; in the experiment with UO-31 renal, 1.48 µM. The TGI with COLO 205 colon is 4.73 µM; with EKVX NSCLC, more than 100 µM; in the experiment on SF-539 CNS it was more than 100 µM; in the experiment on SK-MEL-5 melanoma it was 20.8 µM; in the experiment with SN12C renal, 4.63 µM; with SNB-75 CNS, more than 100 µM. For the same compound, the TGI in the experiment with SW-620 colon, in the experiment on U251 CNS and with UO-31 renal was more than 100 µM in each case.

Regarding `Cc1ccc(/C=C2\CN(C(=O)C(Cl)Cl)C/C(=C\c3ccc(C)cc3)C2=O)cc1`, the GI50 with COLO 205 colon was 0.241 µM; in the experiment on EKVX NSCLC, 0.348 µM; in the experiment with SF-539 CNS, 0.227 µM; with SK-MEL-5 melanoma, 0.445 µM; with SNB-75 CNS, 0.573 µM; in the experiment on SW-620 colon, 0.0554 µM. Moreover, the GI50 with TK-10 renal was 0.57 µM; in the experiment with U251 CNS it was 0.143 µM; with UO-31 renal, 0.158 µM. The TGI worked out at 0.695 µM with COLO 205 colon; 2.31 µM in the experiment with EKVX NSCLC; 0.567 µM in the experiment with SF-539 CNS; 1.53 µM in the experiment with SK-MEL-5 melanoma; 2.9 µM in the experiment on SNB-75 CNS; 0.234 µM with SW-620 colon. For the same compound, the TGI with TK-10 renal is 6.04 µM; in the experiment on U251 CNS it was 0.334 µM; with UO-31 renal, 0.308 µM.

As to `O=C(CSc1ncn[nH]1)C[P+](c1ccccc1)(c1ccccc1)c1ccccc1`, the TGI with COLO 205 colon, with EKVX NSCLC, in the experiment with SF-539 CNS, in the experiment with SK-MEL-5 melanoma, in the experiment with SN12C renal and in the experiment with SNB-75 CNS was more than 100 µM in each case. The TGI with SW-620 colon, in the experiment with TK-10 renal and in the experiment with UO-31 renal was more than 100 µM in each case.

For the compound `O=C(CC1(O)C(=O)Nc2ccc(Br)cc21)c1ccc(Cl)cc1Cl` (centres undefined), the TGI with COLO 205 colon, in the experiment with EKVX NSCLC, with SF-539 CNS, with SN12C renal, in the experiment with SNB-75 CNS and in the experiment with SW-620 colon was more than 100 µM each time. Further, the TGI in the experiment with TK-10 renal, in the experiment on U251 CNS and in the experiment with UO-31 renal was more than 100 µM each time.

As for `COc1cc2c(cc1OC)C(Sc1ccc(SC)cc1)c1c(nc(N)c(C#N)c1N)O2` (centres undefined), the GI50 was 1.71 µM in the experiment with COLO 205 colon; 1.78 µM in the experiment on EKVX NSCLC; 1.55 µM in the experiment on SF-539 CNS; 1.69 µM in the experiment with SK-MEL-5 melanoma; 1.54 µM in the experiment with SNB-75 CNS; 1.92 µM in the experiment on SW-620 colon. The figures for the GI50 in the experiment on TK-10 renal, in the experiment on U251 CNS and with UO-31 renal were 1.6 µM, 1.37 µM and 1.33 µM, respectively. For the same compound, the TGI in the experiment with COLO 205 colon was 3.41 µM; with EKVX NSCLC, 3.32 µM; in the experiment on SF-539 CNS, 2.88 µM; with SK-MEL-5 melanoma it was 3.07 µM; with SNB-75 CNS, 3.16 µM; in the experiment on SW-620 colon, 3.97 µM. For the same compound, the values for the TGI in the experiment with TK-10 renal, in the experiment on U251 CNS and in the experiment on UO-31 renal were 2.95 µM, 2.66 µM and 2.6 µM, respectively.

For `O=[N+]([O-])c1ccc(C2CC(c3ccccc3Cl)=Nc3ccccc3S2=O)cc1` (centres undefined), the TGI in the experiment on COLO 205 colon was determined as 22.1 µM; in the experiment on EKVX NSCLC, 35.4 µM; in the experiment on SF-539 CNS, 15.9 µM; in the experiment on SK-MEL-5 melanoma, 14.2 µM; in the experiment with SN12C renal, 5.2 µM; in the experiment on SNB-75 CNS, 21.4 µM. Also, the values for the TGI in the experiment with SW-620 colon, in the experiment with TK-10 renal and in the experiment on UO-31 renal were 3.91 µM, 19.9 µM and 4.74 µM, respectively.

Turning to `COC(=O)C1=C(c2ccc(OC)c(OC)c2)OC(c2cc(OC)c(OC)c(OC)c2)C1` (centres undefined), the TGI is more than 100 µM in the experiment on EKVX NSCLC; more than 100 µM in the experiment with SF-539 CNS; more than 100 µM in the experiment on SK-MEL-5 melanoma; more than 100 µM in the experiment on SN12C renal; 25.6 µM in the experiment on SNB-75 CNS; more than 100 µM in the experiment with SW-620 colon. For the same compound, the TGI with TK-10 renal, in the experiment with U251 CNS and in the experiment on UO-31 renal was more than 100 µM throughout.

In the case of `CC(C)(C)c1ccc(OC(=O)Nc2ccc(O)c(C(=O)O)c2)cc1`, the TGI in the experiment with COLO 205 colon, in the experiment on EKVX NSCLC, with SF-539 CNS, in the experiment on SK-MEL-5 melanoma, in the experiment on SN12C renal and with SNB-75 CNS was more than 100 µM in each case. Further, the TGI in the experiment with SW-620 colon, in the experiment with TK-10 renal and in the experiment on U251 CNS was more than 100 µM throughout.

In the case of `COc1ccc(S(=O)(=O)NC2=NCCN2C(=S)SN2CCn3c2nsc3=S)cc1`, the GI50 with COLO 205 colon is 11 µM; in the experiment with EKVX NSCLC it was 15.8 µM; with SK-MEL-5 melanoma it was 17.8 µM; in the experiment on SN12C renal it was 18.2 µM; in the experiment on SNB-75 CNS, 19.5 µM; in the experiment on SW-620 colon it was 14.1 µM. Besides, the GI50 with TK-10 renal is 15.9 µM; in the experiment with U251 CNS, 18.8 µM; in the experiment with UO-31 renal, 1.61 µM. Further, the TGI in the experiment on COLO 205 colon turned out to be 27.4 µM; with EKVX NSCLC it was 30.6 µM; with SK-MEL-5 melanoma, 31.7 µM; in the experiment with SN12C renal it was 40 µM; in the experiment on SNB-75 CNS, 42.5 µM; in the experiment on SW-620 colon it was 27.8 µM. The TGI in the experiment with TK-10 renal worked out at 30.2 µM; in the experiment with U251 CNS, 40.5 µM; with UO-31 renal it was 3.41 µM.

Consider `O=C1NC(=O)C(=Nc2cccc3c(=O)[nH][nH]c(=O)c23)C(c2nc3ccccc3s2)C1=O` (centres undefined), for which the TGI in the experiment with COLO 205 colon, in the experiment with EKVX NSCLC, in the experiment with SK-MEL-5 melanoma, with SN12C renal, in the experiment on SNB-75 CNS and in the experiment on SW-620 colon was more than 100 µM throughout. Also, the TGI in the experiment with TK-10 renal, in the experiment with U251 CNS and with UO-31 renal was more than 100 µM each time.

With `S=c1nc(COc2ccc(Cl)cc2Cl)[nH][nH]1`, the TGI in the experiment on EKVX NSCLC, with SF-539 CNS, in the experiment with SK-MEL-5 melanoma, with SN12C renal, with SNB-75 CNS and with SW-620 colon was more than 100 µM throughout. The TGI with TK-10 renal, in the experiment with U251 CNS and with UO-31 renal was more than 100 µM throughout.

As for `CC(=O)NC1C(OCc2ccccc2)OC(CO)C(O)C1OC(C)C(=O)N[C@@H](C)C(=O)N[C@H](CCC(=O)OCCNc1c2ccccc2nc2cccc([N+](=O)[O-])c12)C(N)=O` (some centres undefined), the TGI in the experiment on COLO 205 colon is 0.0026 µM; in the experiment on EKVX NSCLC, 0.00472 µM; with SF-539 CNS, 0.0161 µM; in the experiment with SK-MEL-5 melanoma, 0.00855 µM; in the experiment on SN12C renal it was 0.0313 µM; in the experiment with SNB-75 CNS it was 0.0405 µM and 0.00887 µM. Further, the TGI with SW-620 colon amounted to 0.00283 µM; in the experiment with TK-10 renal, 0.0631 µM; in the experiment on UO-31 renal, 0.0107 µM.
